{"source": "paper PMC12023841", "about": "“Unlocking the Gates: A Novel Diagnostic Molecule for Quantifying Efflux Levels in Gram‐Positive Bacteria” (Advanced Healthcare Materials, 2025)", "origin": "cited, not measured here", "tested_on": "S. aureus strains", "conditions": "cited from earlier work", "note": "Where two headings read alike, the source gives them in different places."}
{"smiles": "CC[n+]1c(-c2ccccc2)c2cc(N)ccc2c2ccc(N)cc21", "note": "[EtBrCW, Ethidium bromide]", "values": [{"measurement": "Efflux detection method EtBrCW", "setting": "strain ATCC25923, ref [4]", "result": "Negative"}, {"measurement": "Efflux detection method EtBrCW", "setting": "strain ATCC25923_EtBr, ref [4]", "result": "Positive (isolates were considered positive if they exhibited fluorescence at the highest EtBr concentration tested (> 2.5 mg/L))"}, {"measurement": "Efflux detection method EtBrCW", "setting": "strain BIOS-H1, ref [7]", "result": "Negative"}, {"measurement": "Efflux detection method EtBrCW", "setting": "strain BIOS-H2, ref [7]", "result": "Negative"}, {"measurement": "Efflux detection method EtBrCW", "setting": "strain BIOS-H3, ref [7]", "result": "Negative"}, {"measurement": "Efflux detection method EtBrCW", "setting": "strain BIOS-H5, ref [7]", "result": "Negative"}, {"measurement": "Efflux detection method EtBrCW", "setting": "strain BIOS-H6, ref [7]", "result": "Negative"}, {"measurement": "Efflux detection method EtBrCW", "setting": "strain BIOS-H12, ref [7]", "result": "Negative"}, {"measurement": "Efflux detection method EtBrCW", "setting": "strain BIOS-H13, ref [7]", "result": "Negative"}, {"measurement": "Efflux detection method EtBrCW", "setting": "strain BIOS-H17, ref [7]", "result": "Negative"}, {"measurement": "Efflux detection method EtBrCW", "setting": "strain BIOS-H20, ref [7]", "result": "Negative"}, {"measurement": "Efflux detection method EtBrCW", "setting": "strain BIOS-H21, ref [7]", "result": "Negative"}, {"measurement": "Efflux detection method EtBrCW", "setting": "strain BIOS-H22, ref [7]", "result": "Negative"}, {"measurement": "Efflux detection method EtBrCW", "setting": "strain BIOS-H25, ref [7]", "result": "Negative"}, {"measurement": "Efflux detection method EtBrCW", "setting": "strain BIOS-H28, ref [7]", "result": "Negative"}, {"measurement": "Efflux detection method EtBrCW", "setting": "strain BIOS-H29, ref [7]", "result": "Negative"}, {"measurement": "Efflux detection method EtBrCW", "setting": "strain BIOS-H30, ref [7]", "result": "Negative"}, {"measurement": "Efflux detection method EtBrCW", "setting": "strain BIOS-H32, ref [7]", "result": "Negative"}, {"measurement": "Efflux detection method EtBrCW", "setting": "strain BIOS-V21, ref [8]", "result": "Negative"}, {"measurement": "Efflux detection method EtBrCW", "setting": "strain BIOS-V31, ref [8]", "result": "Negative"}, {"measurement": "Efflux detection method EtBrCW", "setting": "strain BIOS-V60, ref [8]", "result": "Negative"}, {"measurement": "Efflux detection method EtBrCW", "setting": "strain BIOS-V61, ref [8]", "result": "Negative"}, {"measurement": "Efflux detection method EtBrCW", "setting": "strain BIOS-V62, ref [8]", "result": "Negative"}, {"measurement": "Efflux detection method EtBrCW", "setting": "strain BIOS-V74, ref [8]", "result": "Negative"}, {"measurement": "Efflux detection method EtBrCW", "setting": "strain BIOS-V75, ref [8]", "result": "Negative"}, {"measurement": "Efflux detection method EtBrCW", "setting": "strain BIOS-V85, ref [8]", "result": "Negative"}, {"measurement": "Efflux detection method EtBrCW", "setting": "strain BIOS-V118, ref [8]", "result": "Negative"}, {"measurement": "Efflux detection method EtBrCW", "setting": "strain BIOS-V128, ref [8]", "result": "Negative"}, {"measurement": "Efflux detection method EtBrCW", "setting": "strain BIOS-V147, ref [8]", "result": "Negative"}, {"measurement": "Efflux detection method EtBrCW", "setting": "strain BIOS-V151, ref [8]", "result": "Negative"}, {"measurement": "Efflux detection method EtBrCW", "setting": "strain BIOS-V156, ref [8]", "result": "Negative"}, {"measurement": "Efflux detection method EtBrCW", "setting": "strain BIOS-V157, ref [8]", "result": "Negative"}, {"measurement": "Efflux detection method EtBrCW", "setting": "strain BIOS-V158, ref [8]", "result": "Negative"}, {"measurement": "Efflux detection method EtBrCW", "setting": "strain BIOS-V203, ref [8]", "result": "Negative"}, {"measurement": "Efflux detection method EtBrCW", "setting": "strain BIOS-V245, ref [8]", "result": "Negative"}, {"measurement": "Efflux detection method EtBrCW", "setting": "strain BIOS-V250, ref [8]", "result": "Negative"}, {"measurement": "Efflux detection method EtBrCW", "setting": "strain BIOS-V257, ref [8]", "result": "Negative"}, {"measurement": "Efflux detection method EtBrCW", "setting": "strain BIOS-V279, ref [8]", "result": "Negative"}, {"measurement": "Efflux detection method EtBrCW", "setting": "strain BIOS-V295, ref [8]", "result": "Negative"}, {"measurement": "Efflux detection method EtBrCW", "setting": "strain SA-1199, ref [2]", "result": "Negative"}, {"measurement": "Efflux detection method EtBrCW", "setting": "strain SA-1199B, ref [2]", "result": "Positive (isolates were considered positive if they exhibited fluorescence at the highest EtBr concentration tested (> 2.5 mg/L))"}, {"measurement": "Efflux detection method EtBrCW", "setting": "strain SA-K1748, ref [3]", "result": "Positive (isolates were considered positive if they exhibited fluorescence at the highest EtBr concentration tested (> 2.5 mg/L))"}, {"measurement": "Efflux detection method EtBrCW", "setting": "strain SA-K1758, ref [2]", "result": "Negative"}, {"measurement": "Efflux detection method EtBrCW", "setting": "strain SM 1, ref [6]", "result": "Positive (isolates were considered positive if they exhibited fluorescence at the highest EtBr concentration tested (> 2.5 mg/L))"}, {"measurement": "Efflux detection method EtBrCW", "setting": "strain SM 2, ref [6]", "result": "Negative^* (Isolates marked with (*) displayed fluorescence at intermediate EtBr concentrations (1–2 mg/L))"}, {"measurement": "Efflux detection method EtBrCW", "setting": "strain SM 3, ref [6]", "result": "Negative^* (Isolates marked with (*) displayed fluorescence at intermediate EtBr concentrations (1–2 mg/L))"}, {"measurement": "Efflux detection method EtBrCW", "setting": "strain SM 4, ref [6]", "result": "Negative"}, {"measurement": "Efflux detection method EtBrCW", "setting": "strain SM 5, ref [6]", "result": "Negative"}, {"measurement": "Efflux detection method EtBrCW", "setting": "strain SM 6, ref [6]", "result": "Negative"}, {"measurement": "Efflux detection method EtBrCW", "setting": "strain SM 7, ref [6]", "result": "Negative"}, {"measurement": "Efflux detection method EtBrCW", "setting": "strain SM 8, ref [6]", "result": "Negative^* (Isolates marked with (*) displayed fluorescence at intermediate EtBr concentrations (1–2 mg/L))"}]}
